How the values were obtained:
[1] = Plasma protein binding, equilibrium dialysis (cyno); format: in vitro ADME; conditions: cynomolgus monkey, pH 7.4, read-out: fu,plasma
Protocol: page 5: Drug Metabolism Methods: In vitro Plasma protein binding and Brain homogenate binding: Determination of fraction unbound (f u) in plasma was conducted in vitro via equilibrium dialysis using HTDialysis (HTD) membrane plates. The top half of the plate was filled with 100 uL of Dubelco’s Phosphate Buffered Saline, pH 7.4 (DPBS). Compounds were diluted into plasma from each species (5 µM final concentration), which was aliquoted in triplicate to the ‘bottom half’ of the prepared HTD plate wells. The HTD plate was sealed and incubated for 6 hours at 37 °C. Following incubation, each well (both top and bottom halves) were transferred (20 µL) to the corresponding wells of a 96- shallow-well (V-bottom) plate. The daughter plates were then matrix-matched (DPBS side wells received equal volume of plasma, and plasma side wells received equal volume of DPBS), and extraction solution (120 µL; acetonitrile containing 50 nM carbamazepine as IS) was added to all wells of both daughter plates to precipitate protein and extract test article. The plates were then sealed and centrifuged (3500 rcf) for 10 minutes at ambient temperature. Supernatant (60 µL) from each well of the daughter plates was then transferred to the corresponding wells of new daughter plates (96-shallow-well, V bottom) containing water (Milli-Q, 60 µL/well), and the plates were sealed in preparation for LC-MS/MS analysis (see LC-MS/MS analysis method below). The unbound fraction (f u) was calculated following the equation below, and mean values for each species were calculated from 3 replicates. […] Fraction unbound for both plasma and brain samples was determined using Equation 4. f = Concbuffer u Concplasma Equation 4 Determination of fraction unbound in plasma. […]

[2] = Brain homogenate binding; format: in vitro ADME; conditions: pH 7.4; rat brain homogenate; read-out: fu,brain
Protocol: Plasma protein binding and Brain homogenate binding: Determination of fraction unbound (f u) in plasma was conducted in vitro via equilibrium dialysis using HTDialysis (HTD) membrane plates. The top half of the plate was filled with 100 uL of Dubelco’s Phosphate Buffered Saline, pH 7.4 (DPBS). Compounds were diluted into plasma from each species (5 µM final concentration), which was aliquoted in triplicate to the ‘bottom half’ of the prepared HTD plate wells. The HTD plate was sealed and incubated for 6 hours at 37 °C. Following incubation, each well (both top and bottom halves) were transferred (20 µL) to the corresponding wells of a 96-shallow-well (V-bottom) plate. The daughter plates were then matrix-matched (DPBS side wells received equal volume of plasma, and plasma side wells received equal volume of DPBS), and extraction solution (120 µL; acetonitrile containing 50 nM carbamazepine as IS) was added to all wells of both daughter plates to precipitate protein and extract test article. The plates were then sealed and centrifuged (3500 rcf) for 10 minutes at ambient temperature. […]
The unbound fraction (f u) was calculated following the equation below, and mean values for each species were calculated from 3 replicates.
A similar approach was used to determine the degree of brain homogenate binding, which employed the same methodology and procedure with the following modifications: 1) a final compound concentration of 1 μM was used, 2) naïve rat brains were homogenized in DPBS (1:3 composition of brain: DPBS, w/w) using a Mini-Bead Beater™ machine in order to obtain brain homogenate, which was then treated in the same manner as the plasma samples in the previously described plasma protein binding assay. Fraction unbound for both plasma and brain samples was determined using Equation 4. […]
The diluted fraction unbound (fu2) in brain was calculated in the same manner by using brain homogenate rather than plasma. Undiluted fraction unbound for the brain was calculated using […]

| Compound | fraction unbound at 6 h, 5 µM [1] | fraction unbound at 6 h, 1 µM [2] |
| --- | --- | --- |
| Cn1cc2c(-c3cc(F)c(CN4Cc5ncccc5C4=O)c(F)c3)cccc2n1 [compound 1] | 0.059 | 0.04 |
| [2H]C1([2H])c2ncccc2C(=O)N1Cc1c(F)cc(-c2cccc3nn(C)cc23)cc1F [compound 3] | 0.039 | 0.031 |
| [2H]C1([2H])c2ncccc2C(=O)N1Cc1c(F)cc(-c2cccc3nn(C([2H])([2H])[2H])cc23)cc1F [compound 5] | 0.044 | 0.036 |

— article PMC12006963, “Application of Deuterium in an M1 Positive Allosteric Modulator Back-Up Program: The Discovery of VU6045422” (ACS Chemical Neuroscience, 2025)
